Some test systems named below: A549; A498; MDA-MB-435; IGROV-1; M14; HCC 2998; Malme-3M; KM-20L2; PC-3; HOP-62; SK-MEL-2; CAKI-1; Hs-578T; MCF7; MDA-N; NCI-H460; HT-29; SF-295; TK-10; 786-0.
Common to all, as to assay: NCI tumour cell line growth inhibition, 48 h

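Values below derive from 48-hour exposures of cells grown in 96-well plates, with endpoints linearly interpolated between the two concentrations bracketing the appropriate inhibition level. Here, GI50 denotes the concentration required for 50% inhibition of growth.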 Active and inactive are the calls of the source. No stated cut-off is given here; in the data, active = GI50 up to about 1.1 µM and inactive = higher.

With `COc1ccc2nc3cc(Cl)ccc3c(NCCCN(CCCl)CCCl)c2c1`, the GI50 in the assay on A549 is < 12.2 nM (active); in the assay with A498 it was 16.3 nM (active); in the assay with MDA-MB-435 it was 32.3 nM (active); in the assay with IGROV-1, 32.4 nM (active); in the assay on M14, 40.8 nM (active); in the assay with HCC 2998, 59.6 nM (active). The GI50 in the assay with Malme-3M was 84.1 nM (active); in the assay on KM-20L2 it was 33.9 nM (active); with PC-3 it was < 10 nM (active); in the assay on HOP-62, 30.1 nM (active); in the assay with SK-MEL-2, 140 nM (active); in the assay on CAKI-1 it was < 10 nM (active). The GI50 in the assay on Hs-578T is 32.8 nM (active); in the assay on MCF7 it was < 10 nM (active); in the assay with MDA-N it was 31.8 nM (active); in the assay on NCI-H460, < 10 nM (active); in the assay on HT-29, 11.9 nM (active); with SF-295, 14.2 nM (active). The figures for the GI50 in the assay with TK-10 and in the assay with 786-0 were 452 nM (active) and 10.1 nM (active), respectively.
Take `CC(CN(C)C)C(=O)c1ccccc1` (stereo not given): the GI50 in the assay on A549 was > 65300 nM (inactive); with A498 it was > 46100 nM (inactive); in the assay on IGROV-1, > 100000 nM (inactive); in the assay with M14, 24700 nM (inactive); with HCC 2998 it was 26600 nM (inactive); in the assay on Malme-3M, 24300 nM (inactive). In addition, the GI50 was > 51800 nM (inactive) in the assay with KM-20L2; > 100000 nM (inactive) in the assay with HOP-62; 22700 nM (inactive) in the assay on SK-MEL-2; 3430 nM (inactive) with CAKI-1; > 78700 nM (inactive) in the assay on NCI-H460; 20000 nM (inactive) in the assay with HT-29. Further, the GI50 in the assay with SF-295 is > 100000 nM (inactive); in the assay with TK-10, > 100000 nM (inactive); in the assay with 786-0, 22600 nM (inactive).
